Source: US20240342158A1, “METHOD OF TREATING AND/OR PREVENTING TYPE 1 DIABETES WITH CEPHARANTHINE” (ALBERT EINSTEIN COLLEGE OF MEDICINE, priority 2021, published 2024)

Columns and labels:
humanized NOD-DR3 mice = experiment: Free T4 and anti-mouse Tg antibody levels in cepharanthine-treated immunized mice; assay type: in vivo; conditions: data not shown
Protocol: Autoantibody Measurements: Sera were collected from mice upon sacrifice and stored in −20° C. Nunc™ Maxisorp™ ELISA plate (Thermo Fisher Scientific, Waltham, MA) was coated with 10 μg/ml of either Tg.1571, GAD.492, TPO.758 or mouse Tg in bicarbonate buffer (Sigma-Aldrich) at pH 9.6 and incubated overnight. The ELISA plate was washed 4 times with PBS supplemented with 0.05% Tween (Sigma-Aldrich) [PBST]. After blocking with 2.5% BSA in PBST for 1 h at 37° C., the plate was washed with PBST for 6 times. 100 μl of the diluted sera (1:100 in 0.5% BSA/PBS) was added for 2 h with slow shaking at room temperature. After washing for 6 times with PBST, anti-mouse IgG secondary antibody (Sigma-Aldrich) was added at 1:30,000 dilution in 1% BSA/PBST and incubated for 30 min at 37° C. After washing the plate for 4 times with PBST, the freshly prepared paranitrophenylphosphate substrate (Sigma-Aldrich) was added for 1 h and the plate was read at 405 nm using the BMG reader (BMG Labtech, Cary, NC).
Free T4 Measurements: Sera were collected from mice and were assayed for free thyroxin (fT4) measurements using free thyroxine ELISA kit (Alpha Diagnostic International, San Antonio, TX, catalog no. 1110). Assay was performed according to manufacturer's protocol. […] Absorbance at 450 nm was measured using a BMG ELISA reader (BMG Labtech). […]

[1] = system: humanized NOD-DR3 mice immunized with Tg.1571, GAD.492 and TPO.758; experiment: Blocking the induction of APS3v in vivo: T-cell stimulation by CFSE analysis; design: stimulation index, T cell proliferation induced by GAD.492 / stimulation index, T cell proliferation induced by TPO.758 / T-cell proliferation induced by Tg.1571: dose or concentration left out as unconfirmed
Protocol: Blocking the Induction of APS3v by cepharanthine In Vivo: […] with the peptide mix of Tg.1571, GAD.492 and TPO.758 on day 0; mice were injected with cepharanthine IP again on days 5 and 6 prior to immunization with the same peptide mix on day 7. As controls, four humanized NOD-DR3 littermates were injected with the vehicle that was used to dissolve cepharanthine for in vivo studies [ethanol: PEG400 (Fisher Scientific): saline (5:20:75)] (Frontage Laboratories, Exton, PA) using the same timeline for immunizations.
T-Cell Stimulation and CFSE Analysis: Cells harvested from the spleen and draining lymph nodes of immunized mice were resuspended at 2×10^6 cells/ml in 0.1% BSA/PBS. 1×10^6 cells were labeled with 1.5 μM carboxyfluorescein diacetate succinimidyl ester (CFSE) (Life Technologies). After incubating for 10 min at 37° C., the staining was terminated by the addition of 4 volumes of ice-cold RPMI with 10% FBS. After incubating on ice for 5 min, the cells were washed three times with fresh RPMI and resuspended in fresh medium for counting.
The CFSE-labeled cells were plated at 2×10^5 cells/well in 100 μl medium (RPMI, 10% FBS). The cells were incubated with: medium, Tg.1571, GAD.492, TPO.758 (20 μg/ml), a negative control peptide (NC) (20 μg/ml), or mouse anti-CD3/CD28 beads (Life Technologies) that activate all CD4+ T-cells nonspecifically, as a positive control. The cells were collected after 5 days for flow cytometry analysis. All experiments were performed in quadruplicates. The results were analyzed using Flowjo (Tree Star, Ashland, OR). The stimulation index was calculated by using the following formula: stimulation index=[% proliferating lymphocytes (peptide/mitogen-treated)]/[% proliferating lymphocytes (medium-treated)].
Four humanized NOD-DR3mice were treated with cepharanthine (S53) or vehicle (used to dissolve cepharanthine) for 2 consecutive days before each of the two immunizations with Tg.1571,GAD.492 and TPO.758 peptide mix. At sacrifice, splenocytes and draining lymph node cells were incubated with each peptide and labeled with CFSE for 5 days for T-cell stimulation analysis. Briefly, the CFSE labeled cells were plated at 2×10^5 cells/well in 100 μl medium (RPMI, 10% FBS).The cells were incubated with: medium, Tg.1571, GAD.492, TPO.758 (20 μg/ml), a negative control peptide (NC) (20 μg/ml), or mouse anti-CD3/CD28 beads (Life Technologies) that activate all CD4+ T-cells non-specifically, as a positive control. The cells were collected after 5 days for flow cytometry analysis (see Materials and Methods for details).

For `COc1ccc2cc1Oc1ccc(cc1)C[C@H]1c3c(cc4c(c3Oc3cc5c(cc3OC)CCN(C)[C@@H]5C2)OCO4)CCN1C` [S53, Cepharanthine], the “antibody levels against mouse Tg” value (humanized NOD-DR3 mice) was “did not significantly affect”, the “free T4 levels” value (humanized NOD-DR3 mice) was “did not significantly affect” and the “stimulation index, T cell proliferation induced by GAD.492” value ([1]; -1, 5, 6, CFSE, 5 days, vehicle control 3.21) was 1.53. The “stimulation index, T cell proliferation induced by TPO.758” value ([1]; -1, 5, 6, CFSE, 5 days, vehicle control 6.39) was 3.11, the “T-cell proliferation induced by Tg.1571” value ([1]; -1, 5, 6, CFSE, 5 days, vs vehicle) was “suppressed T-cell proliferation induced by Tg.1571, although not statistically significant” and the “T-cell activation (lymphocyte proliferation, CFSE) in treated mice vs vehicle treated controls” value ([1]; IV on days -2, -1, 5 and 6 at 1 mg/kg, sacrificed day 21) was “significantly suppressed T-cell activation”.
